molecular target: Cyclin-dependent kinase 7 (Homo sapiens, UniProt P50613); assay: CDK7 kinase inhibition, dose response, counter-screen for PKD inhibitor project, biochemical, 57K library addition (AID 1380)
Sequence (P50613 whole entry): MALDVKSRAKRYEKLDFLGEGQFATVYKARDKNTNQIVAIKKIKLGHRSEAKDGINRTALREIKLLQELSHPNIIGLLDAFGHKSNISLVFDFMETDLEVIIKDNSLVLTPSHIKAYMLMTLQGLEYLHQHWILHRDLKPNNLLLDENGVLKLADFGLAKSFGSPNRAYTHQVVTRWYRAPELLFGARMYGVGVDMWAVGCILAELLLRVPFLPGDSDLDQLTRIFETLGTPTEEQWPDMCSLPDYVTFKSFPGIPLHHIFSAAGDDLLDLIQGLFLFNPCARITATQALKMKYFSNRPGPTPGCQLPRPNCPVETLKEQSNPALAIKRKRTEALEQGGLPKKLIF

Row | IC50 [µM] | SMILES
1 | > 100 | O=C1CSCN1c1cc(Cl)ccc1Cl [3-(2,5-dichlorophenyl)-1,3-thiazolan-4-one]
2 | > 100 | O=[N+]([O-])c1ccc(Nc2c3ccccc3nc3ccccc23)cc1 [MLS000723809]
3 | > 100 | O=C(CSc1ccncc1)Nc1ccc2ccccc2c1 [N-naphthalen-2-yl-2-pyridin-4-ylsulfanylacetamide]
4 | > 100 | COC(=O)c1c(NC(=O)C2C3CCC(C3)C2C(=O)O)sc2c1CCCCC2 (stereo not drawn) [SMR000298221]
5 | 8.22 | CC1Cc2ccccc2N1c1ncnc(N)c1[N+](=O)[O-] (stereo not drawn) [6-(2-methyl-2,3-dihydro-1H-indol-1-yl)-5-nitro-4-pyrimidinamine]
6 | > 100 | CCOC(=O)c1sc(=NC(=O)CCS(=O)(=O)c2ccccc2)n(C)c1C [2-[3-(benzenesulfonyl)-1-oxopropyl]imino-3,4-dimethyl-5-thiazolecarboxylic acid ethyl ester]
7 | > 100 | O=C(NNC1=Nc2cccc3cccc1c23)c1ccc(Br)cc1 [SMR000260645]
8 | > 100 | CSc1ccccc1C(=O)NCc1ccc(F)cc1
9 | > 100 | Cc1c(C#N)c(N)nc(Cl)c1C#N [2-amino-6-chloro-4-methyl-3,5-pyridinedicarbonitrile]
10 | > 100 | O=C(CSc1ccc2nnc(-c3cccnc3)n2n1)c1ccccc1 [1-phenyl-2-[[3-(3-pyridinyl)-[1,2,4]triazolo[4,3-b]pyridazin-6-yl]thio]ethanone]
11 | > 100 | Cc1cc(NC(=O)CCC(=O)N(Cc2ccco2)C(C(=O)NCC2CCCO2)c2ccncc2)no1 (stereo not drawn) [N'-(furan-2-ylmethyl)-N-(5-methyl-1,2-oxazol-3-yl)-N'-[2-oxidanylidene-2-(oxolan-2-ylmethylamino)-1-pyridin-4-yl-ethyl]butanediamide]
12 | > 100 | O=C(Nc1ccccc1C(=O)N1CCCC1)C1COc2ccccc2O1 (stereo not drawn) [SMR000287780]
13 | > 100 | O=C(O)c1cc(C(=O)C2CCCCC2)c[nH]1 [4-(cyclohexylcarbonyl)-1H-pyrrole-2-carboxylic acid]
14 | > 100 | CCCc1cc(=O)[nH]c(SCCCCN2C(=O)c3ccccc3C2=O)n1 [2-[4-[(4-oxidanylidene-6-propyl-1H-pyrimidin-2-yl)sulfanyl]butyl]isoindole-1,3-dione]
15 | > 100 | COc1ccc(Cn2c(=O)[nH]c3cc(C(=O)NC4CCCC4)ccc3c2=O)cc1 [MLS000730065]
16 | > 100 | CC(N=Nc1ncc(Cl)cc1Cl)c1ccccn1 (stereo not drawn) [3,5-dichloro-N-(1-pyridin-2-ylethylideneamino)pyridin-2-amine]
17 | > 100 | COc1ccc(CNC(=O)C2Cc3ccccc3CN2C(=O)c2ccco2)cc1 (stereo not drawn) [SMR000343177]
18 | > 100 | Cn1cccc1C(=O)NC(=O)COC(=O)c1cc(S(=O)(=O)N2CCCCC2)ccc1Cl [[2-[(1-methylpyrrol-2-yl)carbonylamino]-2-oxidanylidene-ethyl] 2-chloranyl-5-piperidin-1-ylsulfonyl-benzoate]
